Test results published in article PMC10066365, “Nemacol is a small molecule inhibitor of C. elegans vesicular acetylcholine transporter with anthelmintic potential” (Nature Communications, 2023).
“And” between values parts separate entries of the source, which are not always exact repeats. Equal entries are not always repeated.

How the values were obtained:
[1] = tested on: Dirofilaria immitis L3/L4; assay: Dirofilaria immitis L3/L4 motility assay (DiroImager, 72 h)
C. elegans = C. elegans motor phenotype scoring on solid media (Punc/jerky-unc, coiled, paralyzed), wild-type young adults; format: in vivo, Caenorhabditis elegans; conditions: for atypical locomotion (number of animals) / coiled (number of animals) / no phene (number of animals) / paralyzed (number of animals): young adults, 20 animals per trial, single replicate counts; for Fraction Coiled / Fraction Jerky-Unc / Fraction No Phenotype / Fraction Parayzed: 60 min
[2] = 15 µM, N2 adult worms, Averages of 3 biological repeats
[3] = 15 µM, N2 adult worms, Bio Rep 1
[4] = 15 µM, N2 adult worms, Bio Rep 3
[5] = 15 µM, N2 adult worms, Bio rep 2
[6] = 30 µM, N2 adult worms, Averages of 3 biological repeats
[7] = 30 µM, N2 adult worms, Bio Rep 1
[8] = 30 µM, N2 adult worms, Bio Rep 3
[9] = 30 µM, N2 adult worms, Bio rep 2
[10] = 60 µM, N2 adult worms, Averages of 3 biological repeats
[11] = 60 µM, N2 adult worms, Bio Rep 1
[12] = 60 µM, N2 adult worms, Bio Rep 3
[13] = 60 µM, N2 adult worms, Bio rep 2
[14] = N2, 15 µM, adult worms, average of 3 biological repeats
[15] = N2, 30 µM, adult worms, average of 3 biological repeats

O=[N+]([O-])c1ccc(N2CCN(CC3CCCCC3)CC2)cc1 [Nemacol-1]
activity against D. immitis (EC50) [1]: low micromolar activity
% effect (motility), DIROIM L4 ([1]; 0.016 µM): 0%
% effect (motility), DIROIM L4 ([1]; 0.08 µM): 0%
% effect (motility), DIROIM L4 ([1]; 0.4 µM): 0%
% effect (motility), DIROIM L4 ([1]; 2 µM): 5%
% effect (motility), DIROIM L4 ([1]; 10 µM): 100%
% effect (motility), DIROIM L4 ([1]; 50 µM): 100%
atypical locomotion (number of animals) (C. elegans; 3.75uM, one hour): 9 and 12 and 2 and 3 and 11
coiled (number of animals) (C. elegans; 3.75uM, one hour): 0 and 2 and 1
no phene (number of animals) (C. elegans; 3.75uM, one hour): 11 and 8 and 16 and 17 and 9
paralyzed (number of animals) (C. elegans; 3.75uM, one hour): 0
Fraction Coiled (C. elegans; [2]): 0.15
Fraction Jerky-Unc (C. elegans; [2]): 0.69
Fraction No Phenotype (C. elegans; [2]): 0.15
Fraction Parayzed (C. elegans; [2]): 0.0185
Fraction Coiled (C. elegans; [3]): 0.17
Fraction Jerky-Unc (C. elegans; [3]): 0.6111
Fraction No Phenotype (C. elegans; [3]): 0.22
Fraction Parayzed (C. elegans; [3]): 0
Fraction Coiled (C. elegans; [4]): 0.11
Fraction Jerky-Unc (C. elegans; [4]): 0.8333
Fraction No Phenotype (C. elegans; [4]): 0.0556
Fraction Parayzed (C. elegans; [4]): 0
Fraction Coiled (C. elegans; [5]): 0.17
Fraction Jerky-Unc (C. elegans; [5]): 0.6111
Fraction No Phenotype (C. elegans; [5]): 0.17
Fraction Parayzed (C. elegans; [5]): 0.05556
any phene, mean % fraction of young adults exhibiting any phenotype (coiled, jerky-Unc or paralyzed) (C. elegans; 15uM, one hour, mean of three biological replicates): 91.0317%
atypical locomotion (number of animals) (C. elegans; 15uM, one hour): 6 and 4 and 7 and 5 and 12 and 16
coiled (number of animals) (C. elegans; 15uM, one hour): 5 and 8 and 13 and 4
no phene (number of animals) (C. elegans; 15uM, one hour): 0 and 5 and 2 and 4
paralyzed (number of animals) (C. elegans; 15uM, one hour): 9 and 11 and 1 and 0
Fraction Coiled (C. elegans; [6]): 0.46
Fraction Jerky-Unc (C. elegans; [6]): 0.31
Fraction No Phenotype (C. elegans; [6]): 0.00
Fraction Parayzed (C. elegans; [6]): 0.23
Fraction Coiled (C. elegans; [7]): 0.61
Fraction Jerky-Unc (C. elegans; [7]): 0.2222
Fraction No Phenotype (C. elegans; [7]): 0.00
Fraction Parayzed (C. elegans; [7]): 0.1667
Fraction Coiled (C. elegans; [8]): 0.41
Fraction Jerky-Unc (C. elegans; [8]): 0.3529
Fraction No Phenotype (C. elegans; [8]): 0.00
Fraction Parayzed (C. elegans; [8]): 0.2353
Fraction Coiled (C. elegans; [9]): 0.35
Fraction Jerky-Unc (C. elegans; [9]): 0.3529
Fraction No Phenotype (C. elegans; [9]): 0.00
Fraction Parayzed (C. elegans; [9]): 0.2941
Fraction Coiled (C. elegans; [10]): 0.60
Fraction Jerky-Unc (C. elegans; [10]): 0.10
Fraction No Phenotype (C. elegans; [10]): 0.00
Fraction Parayzed (C. elegans; [10]): 0.29
Fraction Coiled (C. elegans; [11]): 0.69
Fraction Jerky-Unc (C. elegans; [11]): 0.125
Fraction No Phenotype (C. elegans; [11]): 0.00
Fraction Parayzed (C. elegans; [11]): 0.1875
Fraction Coiled (C. elegans; [12]): 0.56
Fraction Jerky-Unc (C. elegans; [12]): 0.1111
Fraction No Phenotype (C. elegans; [12]): 0.00
Fraction Parayzed (C. elegans; [12]): 0.3333
Fraction Coiled (C. elegans; [13]): 0.57
Fraction Jerky-Unc (C. elegans; [13]): 0.07143
Fraction No Phenotype (C. elegans; [13]): 0.00
Fraction Parayzed (C. elegans; [13]): 0.3571
atypical locomotion (number of animals) (C. elegans; 60uM, one hour): 2 and 1 and 4
coiled (number of animals) (C. elegans; 60uM, one hour): 7 and 11 and 17 and 19 and 12 and 8
no phene (number of animals) (C. elegans; 60uM, one hour): 0
paralyzed (number of animals) (C. elegans; 60uM, one hour): 11 and 7 and 1 and 0 and 6 and 8
motor defects after 24 h on compound (C. elegans; 24 h): no longer have obvious motor defects
EC50 (C. elegans; Caenorhabditis elegans, 1 h, read-out: C. elegans - motor disruption EC50): 7.1 µM
Fraction Coiled (C. elegans; [14]): 0.15
Fraction Jerky-Unc (C. elegans; [14]): 0.69
Fraction No Phenotype (C. elegans; [14]): 0.15
Fraction Parayzed (C. elegans; [14]): 0.0185
Fraction Coiled (C. elegans; [15]): 0.46
Fraction Jerky-Unc (C. elegans; [15]): 0.31
